In this assay the target is T1, angiotensin-converting enzyme (ACE) (Sus scrofa, UniProt F1RRW5).
T1 construct: ACE isolated from porcine kidneys (EC 3.4.15.1)
T1 sequence (F1RRW5 34-1309): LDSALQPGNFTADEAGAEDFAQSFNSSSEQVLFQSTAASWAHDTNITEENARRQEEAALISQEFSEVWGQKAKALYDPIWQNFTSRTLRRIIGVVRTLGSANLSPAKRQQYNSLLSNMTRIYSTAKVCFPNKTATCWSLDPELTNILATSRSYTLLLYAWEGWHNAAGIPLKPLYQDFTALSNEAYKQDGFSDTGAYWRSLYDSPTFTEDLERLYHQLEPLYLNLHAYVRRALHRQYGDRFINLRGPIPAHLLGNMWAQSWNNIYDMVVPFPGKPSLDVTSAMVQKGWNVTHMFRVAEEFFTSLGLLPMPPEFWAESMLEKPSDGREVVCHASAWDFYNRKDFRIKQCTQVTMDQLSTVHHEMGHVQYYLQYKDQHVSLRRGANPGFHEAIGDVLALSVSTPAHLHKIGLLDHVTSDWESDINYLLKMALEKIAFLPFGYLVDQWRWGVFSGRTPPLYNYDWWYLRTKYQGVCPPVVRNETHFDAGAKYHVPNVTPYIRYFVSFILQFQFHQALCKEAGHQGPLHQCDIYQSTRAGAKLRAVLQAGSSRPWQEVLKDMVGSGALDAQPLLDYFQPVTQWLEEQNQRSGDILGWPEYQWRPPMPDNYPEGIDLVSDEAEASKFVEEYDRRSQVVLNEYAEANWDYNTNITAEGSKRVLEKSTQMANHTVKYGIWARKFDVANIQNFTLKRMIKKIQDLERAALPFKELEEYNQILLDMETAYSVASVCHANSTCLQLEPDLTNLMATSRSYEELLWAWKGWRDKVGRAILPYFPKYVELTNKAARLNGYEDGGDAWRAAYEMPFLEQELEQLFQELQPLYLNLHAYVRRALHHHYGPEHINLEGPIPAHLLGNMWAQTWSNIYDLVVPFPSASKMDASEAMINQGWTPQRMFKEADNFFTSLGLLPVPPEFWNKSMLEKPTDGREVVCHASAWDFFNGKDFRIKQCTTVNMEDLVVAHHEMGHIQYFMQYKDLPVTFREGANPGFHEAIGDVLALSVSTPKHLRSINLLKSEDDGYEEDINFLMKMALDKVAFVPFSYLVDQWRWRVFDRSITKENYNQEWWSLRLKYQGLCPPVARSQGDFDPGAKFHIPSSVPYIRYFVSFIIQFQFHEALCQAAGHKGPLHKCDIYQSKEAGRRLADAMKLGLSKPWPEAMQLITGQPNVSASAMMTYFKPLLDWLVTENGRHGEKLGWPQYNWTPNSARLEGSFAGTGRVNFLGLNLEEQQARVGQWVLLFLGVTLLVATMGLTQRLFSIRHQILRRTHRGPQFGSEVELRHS
In words: fluorescence assay, hydrolysis of Abz-Gly-Phe(NO2)-Pro. Type of assay: biochemical.

Each structure is given as a SMILES string. pIC50: −log10 of the molar value. Where two headings read alike, the source gives them in different places.

In the case of `O=C1O[C@H]([C@@H](O)CO)C(O)=C1O` [AA, L-ascorbic acid], the pIC50 (usually the negative decadic logarithm of the IC50, by convention in mol/L) was 1.09. Consider `O=C(O)/C=C/c1ccc(O)c(O)c1` [CFA, Caffeic acid], for which the IC50 (read-out: IC50 (μg/mL) (converted)) was 8.97 mM.

Turning to `N[C@@H](CCC(=O)N[C@@H](CS)C(=O)NCC(=O)O)C(=O)O` [GSH], the “IC50” value came out at 12.79 ± 1.70 µg/mL.

For the origin of these results see article PMC7914463, “Caffeic Acid Modulates Processes Associated with Intestinal Inflammation” (Nutrients, 2021).
